In PubChem BioAssay (NCI):
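Test compounds were applied to cells in 96-well plates for 48 hours at 5 doses. GI50 = concentration required for 50% inhibition of growth. TGI: concentration producing complete growth inhibition.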

Columns and labels:
Assay in all cases: inhibition of tumour cell growth, NCI panel, 48 h
SK-MEL-5 melanoma = test system: SK-MEL-5 melanoma
SF-539 CNS = test system: SF-539 CNS
OVCAR-4 ovarian = test system: OVCAR-4 ovarian
HCC-2998 colon = test system: HCC-2998 colon
SF-295 CNS = test system: SF-295 CNS
SK-MEL-2 melanoma = test system: SK-MEL-2 melanoma
A549 NSCLC = test system: A549 NSCLC
SK-OV-3 ovarian = test system: SK-OV-3 ovarian
COLO 205 colon = test system: COLO 205 colon
HS 578T breast = test system: HS 578T breast
RPMI-8226 leukemia = test system: RPMI-8226 leukemia
DU-145 prostate = test system: DU-145 prostate
HCT-15 colon = test system: HCT-15 colon
OVCAR-3 ovarian = test system: OVCAR-3 ovarian
SR leukemia = test system: SR leukemia
HOP-92 NSCLC = test system: HOP-92 NSCLC
ACHN renal = test system: ACHN renal
MDA-MB-435 = test system: MDA-MB-435
LOX IMVI melanoma = test system: LOX IMVI melanoma
SK-MEL-28 melanoma = test system: SK-MEL-28 melanoma
UACC-257 melanoma = test system: UACC-257 melanoma
UO-31 renal = test system: UO-31 renal
IGROV1 ovarian = test system: IGROV1 ovarian
SW-620 colon = test system: SW-620 colon
UACC-62 melanoma = test system: UACC-62 melanoma
CAKI-1 renal = test system: CAKI-1 renal
PC-3 prostate = test system: PC-3 prostate
A498 renal = test system: A498 renal
NCI-H522 lung = test system: NCI-H522 lung
SF-268 CNS = test system: SF-268 CNS
BT-549 breast = test system: BT-549 breast
HL-60(TB) leukemia = test system: HL-60(TB) leukemia
U251 CNS = test system: U251 CNS
SN12C renal = test system: SN12C renal
MOLT-4 leukemia = test system: MOLT-4 leukemia
MDA-MB-231 breast = test system: MDA-MB-231 breast
NCI-H23 lung = test system: NCI-H23 lung
786-0 renal = test system: 786-0 renal
NCI-H226 lung = test system: NCI-H226 lung
M14 melanoma = test system: M14 melanoma
KM12 colon = test system: KM12 colon
SNB-75 CNS = test system: SNB-75 CNS
HT29 colon = test system: HT29 colon
T-47D breast = test system: T-47D breast
OVCAR-8 ovarian = test system: OVCAR-8 ovarian
TK-10 renal = test system: TK-10 renal
SNB-19 CNS = test system: SNB-19 CNS
OVCAR-5 ovarian = test system: OVCAR-5 ovarian
K-562 leukemia = test system: K-562 leukemia
RXF 393 renal = test system: RXF 393 renal
CCRF-CEM leukemia = test system: CCRF-CEM leukemia
NCI/ADR-RES ovarian = test system: NCI/ADR-RES ovarian
HOP-62 NSCLC = test system: HOP-62 NSCLC
NCI-H460 lung = test system: NCI-H460 lung
HCT-116 colon = test system: HCT-116 colon
MALME-3M melanoma = test system: MALME-3M melanoma
MCF7 breast = test system: MCF7 breast

SMILES: CCN(Cc1cc(F)ccc1F)c1ccc(CO)c(Cl)c1
- GI50 (SK-MEL-5 melanoma): 10.8 µM
- TGI (SK-MEL-5 melanoma): 22.9 µM
- GI50 (SF-539 CNS): 15.2 µM
- TGI (SF-539 CNS): 30.4 µM
- GI50 (OVCAR-4 ovarian): 0.129 µM
- TGI (OVCAR-4 ovarian): 1.15 µM
- GI50 (HCC-2998 colon): 6.37 µM
- TGI (HCC-2998 colon): 21.7 µM
- GI50 (SF-295 CNS): 0.283 µM
- TGI (SF-295 CNS): 13.2 µM
- GI50 (SK-MEL-2 melanoma): 2.72 µM
- TGI (SK-MEL-2 melanoma): 19.5 µM
- GI50 (A549 NSCLC): 1.54 µM
- TGI (A549 NSCLC): 21.6 µM
- GI50 (SK-OV-3 ovarian): 8.94 µM
- TGI (SK-OV-3 ovarian): 29.1 µM
- GI50 (COLO 205 colon): 2.17 µM
- TGI (COLO 205 colon): 6.72 µM
- GI50 (HS 578T breast): 16.2 µM
- TGI (HS 578T breast): 47.4 µM
- GI50 (RPMI-8226 leukemia): 2.24 µM
- TGI (RPMI-8226 leukemia): 30.3 µM
- GI50 (DU-145 prostate): 15.5 µM
- TGI (DU-145 prostate): 36.7 µM
- GI50 (HCT-15 colon): 12.8 µM
- TGI (HCT-15 colon): 32.3 µM
- GI50 (OVCAR-3 ovarian): 0.238 µM
- TGI (OVCAR-3 ovarian): 0.861 µM
- GI50 (SR leukemia): 16.1 µM
- TGI (SR leukemia): 44.3 µM
- GI50 (HOP-92 NSCLC): 0.292 µM
- TGI (HOP-92 NSCLC): 6.21 µM
- GI50 (ACHN renal): 14.3 µM
- TGI (ACHN renal): 29.6 µM
- GI50 (MDA-MB-435): 12.8 µM
- TGI (MDA-MB-435): 30 µM
- GI50 (LOX IMVI melanoma): 14.6 µM
- TGI (LOX IMVI melanoma): 29.2 µM
- GI50 (SK-MEL-28 melanoma): 13.8 µM
- TGI (SK-MEL-28 melanoma): 27.5 µM
- GI50 (UACC-257 melanoma): 0.0904 µM
- TGI (UACC-257 melanoma): 0.308 µM
- GI50 (UO-31 renal): 2.02 µM
- TGI (UO-31 renal): 23.4 µM
- GI50 (IGROV1 ovarian): 0.0527 µM
- TGI (IGROV1 ovarian): 0.279 µM
- GI50 (SW-620 colon): 0.554 µM
- TGI (SW-620 colon): 20.5 µM
- GI50 (UACC-62 melanoma): 0.0877 µM
- TGI (UACC-62 melanoma): 0.602 µM
- GI50 (CAKI-1 renal): 0.416 µM
- TGI (CAKI-1 renal): 5.1 µM
- GI50 (PC-3 prostate): 13.4 µM
- TGI (PC-3 prostate): 32.4 µM
- GI50 (A498 renal): 0.0298 µM
- TGI (A498 renal): 0.145 µM
- GI50 (NCI-H522 lung): 12.2 µM
- TGI (NCI-H522 lung): 29 µM
- GI50 (SF-268 CNS): 17.3 µM
- TGI (SF-268 CNS): 40.6 µM
- GI50 (BT-549 breast): 15.4 µM
- TGI (BT-549 breast): 30.8 µM
- GI50 (HL-60(TB) leukemia): 5.62 µM
- TGI (HL-60(TB) leukemia): 34.7 µM
- GI50 (U251 CNS): 0.788 µM
- TGI (U251 CNS): 17.1 µM
- GI50 (SN12C renal): 11.8 µM
- TGI (SN12C renal): 25.6 µM
- GI50 (MOLT-4 leukemia): 18.1 µM
- TGI (MOLT-4 leukemia): 53.8 µM
- GI50 (MDA-MB-231 breast): 13.6 µM
- TGI (MDA-MB-231 breast): 29.1 µM
- GI50 (NCI-H23 lung): 11.4 µM
- TGI (NCI-H23 lung): 33.1 µM
- GI50 (786-0 renal): 11.8 µM
- TGI (786-0 renal): 26.9 µM
- GI50 (NCI-H226 lung): 0.0484 µM
- TGI (NCI-H226 lung): 0.178 µM
- GI50 (M14 melanoma): 15.5 µM
- TGI (M14 melanoma): 32.5 µM
- GI50 (KM12 colon): 14.5 µM
- TGI (KM12 colon): 30.8 µM
- GI50 (SNB-75 CNS): 10.4 µM
- TGI (SNB-75 CNS): 35.6 µM
- GI50 (HT29 colon): 4.1 µM
- TGI (HT29 colon): 17.7 µM
- GI50 (T-47D breast): 0.116 µM
- TGI (T-47D breast): 1.9 µM
- GI50 (OVCAR-8 ovarian): 13 µM
- TGI (OVCAR-8 ovarian): 36.2 µM
- GI50 (TK-10 renal): 0.0332 µM
- TGI (TK-10 renal): 0.199 µM
- GI50 (SNB-19 CNS): 20.2 µM
- TGI (SNB-19 CNS): 80.3 µM
- GI50 (OVCAR-5 ovarian): 0.0502 µM
- TGI (OVCAR-5 ovarian): 0.228 µM
- GI50 (K-562 leukemia): 0.617 µM
- TGI (K-562 leukemia): 20.9 µM
- GI50 (RXF 393 renal): 4.16 µM
- TGI (RXF 393 renal): 17.3 µM
- GI50 (CCRF-CEM leukemia): 22.5 µM
- TGI (CCRF-CEM leukemia): 91.5 µM
- GI50 (NCI/ADR-RES ovarian): 13.6 µM
- TGI (NCI/ADR-RES ovarian): 39.9 µM
- GI50 (HOP-62 NSCLC): 1.35 µM
- TGI (HOP-62 NSCLC): 20.5 µM
- GI50 (NCI-H460 lung): 0.177 µM
- TGI (NCI-H460 lung): 10.8 µM
- GI50 (HCT-116 colon): 0.0553 µM
- TGI (HCT-116 colon): 11.7 µM
- GI50 (MALME-3M melanoma): 13.3 µM
- TGI (MALME-3M melanoma): 27.2 µM
- GI50 (MCF7 breast): 0.181 µM
- TGI (MCF7 breast): 12.7 µM
